Laboratory results as given in patent publication EP0791071B1, “ASSAY FOR PROLINE IMINOPEPTIDASE AND OTHER HYDROLYTIC ACTIVITIES” (LITMUS CONCEPTS, INC., priority 1994, dated 1996).
Read-outs that look alike come from different tables or passages of the source. Non-standard residues stand in square brackets, D forms with d. Residues, ends and D or L forms follow the SMILES beside them. *: point of attachment. Sta = CC(C)C[C@H](N)[C@@H](O)CC(=O)O; AMC = Cc1cc(=O)oc2cc(N*)ccc12; Isovaleryl = CC(C)CC(=O)*; Boc = CC(C)(C)OC(=O)*

What was measured:
[1] = tested on: Mobiluncus curtisii ATCC strain 35241 cell hydrolysis of t-boc-L-val.L-leu.L-lys.7-amino-4-methyl coumarin; assay: Enzyme inhibitors on cell hydrolysis of t-boc.VAL.LEU.LYS.7-AMC, PDMAC chromogen (Experiment X); format: biochemical; design: key to TEST COLOR: -: no red color formation; +/-: possible red color formation; +: clearly visible red color formation; ++: extremely intense red color formation; conditions: for TEST COLOR: t-boc.VAL.LEU.LYS.7-AMC as the conjugate, 1.5 hours at room temperature, no inhibitor 2
Experimental: (§1) 50 µL cell suspension, 5 µL conjugate, 10 µL inhibitor, and 35 µL buffer were added to test tubes, and the suspension incubated for 1.5 hours at room temperature. 90 µL of the incubated suspension was added to 90 µL of the chromogen solution and the color formation noted.

[2] = tested on: Mobiluncus curtisii ATCC strain 35241 cell hydrolysis of Z-L-arg.L-arg.AFC; assay: Enzyme inhibitors on cell hydrolysis of Z-ARG.ARG.AFC, PDMAC chromogen (Experiment X); format: biochemical; design: key: 0: no red color formation; 0.25: faintest red color detectable visually; 0.5: distinct red color; red color between 1.0 and 2.0 in intensity; 2.0: darkest red color possible in test system; conditions: Z-ARG.ARG.AFC as the conjugate, 1.5 hours at room temperature, water control 2
Experimental: as §1

[3] = tested on: Mobiluncus curtisii ATCC strain 35241 hydrolysis of L-prolyl-beta-naphthylamide (proline iminopeptidase activity); assay: Enzyme inhibitors on hydrolysis of L-prolyl-beta-naphthylamide, PDMAC chromogen (Experiment VIII); format: biochemical; conditions: PRO.NAM conjugate, 1.5 hours at room temperature, water control 2
Experimental: 150 µL cell suspension, 10 µL conjugate, (PRO.NAM), 10 µL inhibitor, and 30 µL buffer were added to test tubes, and the suspension incubated for 1.5 hours at room temperature. 80 µL of the suspension was removed from the incubation tubes and added to 80 µL of the chromogen solution in a second set of tubes and the color formation noted.

[4] = tested on: Mobiluncus curtisii ATCC strain 35241 cell hydrolysis of the conjugate, L-prolyl-beta-naphthylamide; format: biochemical; design: key: -: no red color formation; +/-: possible red color formation; +: clearly visible red color formation; ++: extremely intense red color formation; conditions: PRO.NAM conjugate, 2 minutes incubation, read after 3 minutes, water control 2
Experimental: 30 µL cell suspension, 10 µL conjugate, PRO.NAM, and 10 µL salt solution or water were added to test tubes, and the suspension incubated for 2 minutes at room temperature. 20 µL of the suspension was removed from the incubation tubes and added to Fast Garnet GBC chromogenic indicator laminae. After 3 minutes, the Fast Garnet GBC indicator laminae were examined for a red color.

[5] = tested on: Mobiluncus curtisii ATCC strain 35241 hydrolysis of the conjugate, L-arginyl-beta-naphthylamide (ARG.NAM); format: biochemical; conditions: pH 8.0 Tris, 1 hour at room temperature, water control 2
Experimental: (§2) 20 µL cell suspension, 50 µL water, 10 µL salt solution, 10 µL buffer, and 5 µL conjugate, ARG.NAM, were added to test tubes, and the suspension incubated for 1 hour at room temperature. 100 µL of the PDMAC chromogen reagent was added, and red color formation after 5 minutes was noted.

[6] = tested on: proline iminopeptidase activity in Mobiluncus curtsii ATCC strain 35241 cells; assay: Diazonium dye indicator laminae in test devices with PRO.NAM lamina: color with Mobiluncus curtisii suspension (Experiment III); format: biochemical, Mobiluncus curtisii ATCC strain 35241; conditions: dye indicator lamina and PRO.NAM lamina in test device; about 40 microliters cell suspension; 10 minutes at room temperature
Experimental: Chromogenic indicator laminae of Fast Garnet GBC, 15 mg; Fast Black K, 57 mg; Fast Dark Blue, Fast Bordeaux, Fast Violet, and Fast Red B, 21 mg prepared as described in P[…] and proline iminopeptidase-hydrolyzable conjugate, L-prolyl-beta-naphthylamide, (13 mg/ml) prepared as described in P[…] were manually assembled into test devices (P[…]). • 1. Tests of device performance with the reporter group, beta-naphthylamine. Approximately 40 microliters of 500 micromolar beta-naphthylamine solution was added to the manually assembled kits. After 10 minutes, color formation was noted. • 2. Test kit performance with proline iminopeptidase activity in Mobiluncus curtsii ATCC strain 35241 cells.
Approximately 40 microliters of the Mobiluncus curtisii ATCC strain 35241 suspension were added to each test kit. After 10 minutes at room temperature, the appearance of color was determined.

[7] = tested on: Mobiluncus curtisii ATCC strain 35241 hydrolysis of the conjugate, L-prolyl-beta-naphthylamide; format: biochemical; design: key: 0: no red color formation; 0.25: faintest red color detectable visually; 0.5: distinct red color; red color between 1.0 and 2.0 in intensity; 2.0: darkest red color possible in test system; conditions: 10 µL of 100 mM metal salt, PRO.NAM conjugate
Experimental: (§3) 20 µL cell suspension, 40 µL water, 10 µL salt solution, and 10 µL conjugate solutions (PRO.NAM or ARG.NAM) were added to test tubes, and mixed thoroughly. Immediately thereafter, 20 µL aliquots were removed from each tube, and added directly to Fast Garnet GBC chromogenic indicator laminae. After 5 minutes at room temperature, the Fast Garnet GBC sheets were examined for the formation of a red color.

[8] = tested on: Mobiluncus curtisii ATCC strain 35241 hydrolysis of the conjugate, L-arginyl-beta-naphthylamide; assay: Manganese and zinc chlorides on hydrolysis of ARG.NAM at high and low pH, Fast Garnet GBC laminae (Experiment XIII); format: biochemical; conditions: 10 µL of 100 mM metal salt
Experimental: as §3

[9] = tested on: Mobiluncus curtisii ATCC Strain 35241; assay: Hydrolysis of conjugates by microbial cells, PDMAC chromogen in solution (Experiment IV); format: biochemical; conditions: preparation and pH not given
Experimental: 50 µL distilled water, 25 µL buffer, and 25 µL microbial suspension were mixed. 5 µL conjugate was added, and the mixture allowed to incubate for 10 minutes at room temperature. 100 µL PDMAC was added to each incubation, and the color score noted.

[10] = tested on: Mobiluncus curtisii ATCC strain 35241 proline iminopeptidase activity; assay: Inhibition of proline iminopeptidase activity by detergents, PRO.NAM conjugate, PDMAC chromogen (Experiment VII); format: biochemical
Experimental: To one set of four test tubes were added 20 µL cell suspension, 5 µL conjugate, and 65 µL distilled water. After 10 minutes incubation at room temperature, 10 µL detergent and 90 µL chromogen solution was added and the color formation noted. To a second set of four test tubes were added 20 µL cell suspension, 5 µL conjugate, and 65 µL detergent solution. After 10 minutes incubation of these components at room temperature, 10 µL water and 90 µL chromogen solution was added and the color formation noted.

[11] = tested on: Mobiluncus curtisii ATCC strain 35241 hydrolysis of the conjugate, L-arginyl-beta-naphthylamide (ARG.NAM); format: biochemical; design: key: -: no red color formation; +/-: possible red color formation; +: clearly visible red color formation; ++: extremely intense red color formation; conditions: metal salt 5 mM, pH 8.0 Tris, 1 hour at room temperature, water control 2
Experimental: as §2

[12] = tested on: Mobiluncus curtisii ATCC strain 35241 hydrolysis of the conjugate, L-arginyl-beta-naphthylamide (ARG.NAM); format: biochemical; design: key: 0: no red color formation; 0.25: faintest red color detectable visually; 0.5: distinct red color; red color between 1.0 and 2.0 in intensity; 2.0: darkest red color possible in test system; conditions: metal salt 5 mM, pH 8.0 Tris, 1 hour at room temperature, water control 2
Experimental: as §2

## O[C@H](CS)[C@H](O)CS (racemic) [DTT, dithiothreitol]
[1]; CONCENTRATION (Mm) 1
  TEST COLOR: 2
[2]; CONCENTRATION (Mm) 1
  TEST COLOR: 2
[3]; inhibitor 1 mM
  TEST COLOR: 2

## [Ca+2].[Cl-].[Cl-] [CaCl2]
[4]; metal salt 20 mM
  TEST COLOR: 2
[5]; metal salt 5 mM
  TEST COLOR: 2

## O=C(O)CN(CCOCCOCCN(CC(=O)O)CC(=O)O)CC(=O)O [EGTA, ethyleneglycol-bis-(beta-aminoethyl ether)-N,N,N',N'-tetraacetic acid]
[1]; CONCENTRATION (Mm) 5
  TEST COLOR: 2
[2]; CONCENTRATION (Mm) 5
  TEST COLOR: 2
[3]; inhibitor 5 mM
  TEST COLOR: 2

## Cc1ccccc1N=Nc1ccc([N+]#N)c(C)c1 [Fast Garnet GBC]
[6]
  color formation with Mobiluncus Curtisii: red

## [Cl][Mn][Cl] [MnCl2, manganese chloride]
[7]; pH 5, without salt 1
  COLOR SCORE 5 MINUTES: 1
[7]; pH 8, without salt 0.5
  COLOR SCORE 5 MINUTES: 0.5
[4]; metal salt 20 mM
  TEST COLOR: 2
[8]; pH 5, without salt 0
  COLOR SCORE 5 MINUTES: 0
[8]; pH 8, without salt 0.5
  COLOR SCORE 5 MINUTES: 0
[5]; metal salt 5 mM
  TEST COLOR: 1

## CCN1C(=O)C=CC1=O [NEM, N-ethylmaleimide]
[1]; CONCENTRATION (Mm) 2
  TEST COLOR: 2
[2]; CONCENTRATION (Mm) 2
  TEST COLOR: 2
[3]; inhibitor 0.5 mM
  TEST COLOR: 2

## O=C(O)c1cc[c]([Hg][Cl])cc1 [PCMB, para-chloromercuribenzoate]
[3]; inhibitor 0.5 mM
  TEST COLOR: 2

## O=S(=O)(F)Cc1ccccc1 [PMSF, phenyl methyl sulfonyl fluoride]
[1]; CONCENTRATION (Mm) 0.5
  TEST COLOR: 1
[1]; hydrolysis of T-boc-VAL.LEU.LYS.AMC
  inhibited activity: approximately 50%
[2]; CONCENTRATION (Mm) 0.5
  TEST COLOR: 2
[3]; inhibitor 2 mM
  TEST COLOR: 2

## Cc1cc(=O)oc2cc(NC(=O)[C@H](CCCCN)NC(=O)[C@H](CC(C)C)NC(=O)[C@@H](NC(=O)OC(C)(C)C)C(C)C)ccc12 [T-boc.VAL. LEU.LYS.AMC, Tert-butyloxycarbonyl-L-valyl-L-leucyl.L-lysyl-7-amino-4-methyl coumarin] (Boc-Val-Leu-Lys-{AMC})
[9]
  M. CURTISII PDMAC COLOR (PREP., pH): 2

## Cc1ccc(S(=O)(=O)N[C@@H](CCCCN)C(=O)CCl)cc1 [TLCK, N-tosyl-L-lysine-chloromethyl ketone]
[1]; CONCENTRATION (Mm) 0.5
  TEST COLOR: 0
[2]; CONCENTRATION (Mm) 0.5
  TEST COLOR: 0.5

## Cc1ccc(S(=O)(=O)N[C@@H](Cc2ccccc2)C(=O)CCl)cc1 [TPCK, N-tosyl-L-phenylalanine chloromethyl ketone]
[1]; CONCENTRATION (Mm) 0.5
  TEST COLOR: 0
[2]; CONCENTRATION (Mm) 0.5
  TEST COLOR: 0.5
[3]; inhibitor 0.5 mM
  TEST COLOR: 2

## CC(C)CC(=O)N[C@H](C(=O)N[C@H](C(=O)N[C@@H](CC(C)C)[C@@H](O)CC(=O)N[C@@H](C)C(=O)N[C@@H](CC(C)C)[C@@H](O)CC(=O)O)C(C)C)C(C)C [pepstatin] (Isovaleryl-VV[Sta]A[Sta]-OH)
[1]; CONCENTRATION (Mm) 0.5
  TEST COLOR: 2
[2]; CONCENTRATION (Mm) 0.5
  TEST COLOR: 2
[3]; inhibitor 0.5 mM
  TEST COLOR: 2

## CCCCCCCCCCCCCCCCCCOS(=O)(=O)[O-].[Na+] [sodium octadecyl sulfate]
[10]; detergent (10 µL) added after the 10 minute incubation, with the chromogen
  COLOR: red
[10]; detergent among first additions, present with cells and PRO.NAM during the 10 minute incubation, red = hydrolysis, yellow = none
  COLOR: yellow

## CrCl2
[4]; metal salt 20 mM
  TEST COLOR: 2

## MgCl2
[4]; metal salt 20 mM
  TEST COLOR: 2

## cupric chloride [CuCl2]
[4]; metal salt 5 mM
  TEST COLOR: 0
[11]
  TEST COLOR: 0
[5]; metal salt 1 mM
  TEST COLOR: 1

## mercuric chloride [HgCl2]
[4]; metal salt 1 mM
  TEST COLOR: 0

## zinc chloride [ZnCl2]
[12]
  TEST COLOR: 0.5
[7]; pH 5, without salt 1
  COLOR SCORE 5 MINUTES: 1
[7]; pH 8, without salt 0.5
  COLOR SCORE 5 MINUTES: 0.5
[4]; metal salt 20 mM
  TEST COLOR: 2
[8]; pH 5, without salt 0
  COLOR SCORE 5 MINUTES: 0
[8]; pH 8, without salt 0.5
  COLOR SCORE 5 MINUTES: 0
[5]; metal salt 1 mM
  TEST COLOR: 1
